From US20230021957A1, “USE OF PSILOCIN, […] ANALOGS THEREOF IN WEIGHT LOSS, TREATMENT OF OBESITY AND COMPULSIVE EATING DISORDER” (NEONMIND BIOSCIENCES INC., priority 2019, published 2023)

Tests used:
[1] = Weight loss in obese males, gel tabs on weekdays for 2 months; format: in vivo, human; conditions: 2.5 mg gel tab every morning on weekdays
Experimental: 12 males all weighing between 250 and 275 lbs and all having BMI indexes between 30 and 35 kg/m^2 are split into two groups. The first is provided with placebo gel tabs; the second with indistinguishable gel tabs containing 2.5 mg of purified synthetically produced psilocin in a pharmaceutically acceptable carrier. Both groups are instructed to take one gel tab every morning, before breakfast, on weekdays, with weekends off, for 2 months. At the end of the two months, the first (placebo) group is found to have a similar weight as before the treatment, whereas the treatment group loses an average of 12 lbs each.

[2] = Weight gain of rats on a high calorie diet, once daily psilocybin for five days; format: in vivo, Sprague-Dawley rats; conditions: for total weight gain over the 5 day period: control 27.8
Experimental: In order to determine whether psilocybin has anorectic—and therefore weight loss—properties, a preclinical study of the drug was conducted, using a well-validated animal model. Rodent models of food consumption and weight gain have a strong homology with humans, as rodents are omnivores with a very similar metabolic physiology. […] The goal of the present study was to cause accelerated weight gain with a high calorie diet, consisting of a highly palatable food with a large proportion of fat and carbohydrate, compared to standard animal food, which is designed to maintain a healthy weight. We evaluated whether treatment with two different doses of psilocybin could reduce the accelerated weight gain caused by this diet.
Adult, male Sprague-Dawley rats were purchased from the animal supplier, and then housed in pairs in polycarbonate cages, with access to water and standard rat food ad libitum. Rats were given a period of time to acclimate to the animal colony. They were then all given unlimited access to a highly palatable diet that is very high in carbohydrate and fat (consisting predominantly of a hazelnut-flavored chocolate spread combined with peanut butter) that has been used routinely in multiple published studies with rats to study rapid weight gain (Hansen et al., Acta pharmacologica Sinica. 2012; 33(2):194-200). Animals were randomly assigned to one of three treatment groups, which consisted of once daily administration of either a lower dose (5 mg/kg; n=7 animals) of psilocybin, a higher dose (20 mg/kg; n=7 animals) of psilocybin, or no psilocybin (n=12 animals). The psilocybin was supplied by the Katz Group at the University of Alberta, and was legally approved by an exemption from Health Canada.
Rats were administered the drug approximately two hours before the lights went off in the animal colony, which is when feeding typically commences. Animals were free to consume as much of the regular rat food or high calorie diet as they wished. They were weighed each day prior to drug treatment, to determine how much weight had been gained in the previous 24 hours. The study administered the drug over five consecutive days. Data were statistically analyzed by (SPSS Version 24 software package) using a one-way Analysis of Variance (ANOVA) with a LSD-post hoc test to detect between-group differences.

[3] = system: compulsive eating disorder; assay: Self-reported instances of compulsive eating over two months; conditions: once a day with breakfast for two months; compared to first two months without treatment

With `CN(C)CCc1c[nH]c2cccc(O)c12` [psilocin, 4-hydroxy-N,N-dimethyltryptamine] the fasting glucose levels [1] was “lower fasting glucose levels”, the insulin resistance [1] was “decreased insulin resistance” and the levels of hypertension [1] was “lower levels of hypertension”. For the same compound, the “lipid count in the blood stream” value [1] was “lower lipid count in the blood stream” and the average weight loss ([1]; males 250-275 lbs, BMI 30-35) was 12 lbs.

For `CN(C)CCc1c[nH]c2cccc(OP(=O)(O)O)c12` [psilocybin], the “reduction in weight gain vs control” value ([2]; 5 mg/kg once daily, 5 days) was 31%, the “total weight gain over the 5 day period” value ([2]; 5 mg/kg once daily) was 19.4 grams and the “cumulative weight gain, day-by-day comparison with controls” value ([2]; 20 mg/kg) was “significantly reduced weight gain compared to controls by Day 3”. For the same compound, the “relative weight gain, day-by-day comparison with controls” value ([2]; 20 mg/kg) was “gained statistically less relative weight by day 3”, the “reduction in weight gain vs control” value ([2]; 20 mg/kg once daily, 5 days) was 28% and the “total weight gain over the 5 day period” value ([2]; 20 mg/kg once daily) was 20.1 grams. The “decrease of weight gain (summary)” value ([2]; both doses of psilocybin) was “approximately one third”, the “total relative weight gain (relative to baseline weight)” value ([2]; both psilocybin groups (5 and 20 mg/kg), 5 days, controls 8.4%) was 5.7% and the “decrease in relative weight gain vs controls” value ([2]; both psilocybin groups (5 and 20 mg/kg), 5 days, p=0.01) was 32%. The “relative weight gain, day-by-day comparison with controls” value ([2]; both psilocybin groups (5 and 20 mg/kg), p<0.05) was “gained less relative weight by day 4”, the “weight gain per day” value ([2]; both psilocybin-treated groups (5 and 20 mg/kg once daily), control 5-8) was 1-8 grams per day and the “cumulative weight gain, day-by-day comparison with controls” value ([2]; both psilocybin-treated groups (5 and 20 mg/kg)) was “significantly decreased weight gain compared to controls”. The “self-reported instances of compulsive eating” value [3] was “decrease in compulsive eating”.
